{"source": "patent US20240132484A1", "about": "“BROAD SPECTRUM ANTIVIRAL COMPOUNDS TARGETING THE SKI COMPLEX” (priority 2020, published 2024)", "key": {"cells (nuclei count)": {"test_system": "cells (nuclei count)", "details": "for Relative cell count to DMSO controls, Average 1 μM / Relative cell count to DMSO controls, Average 5 μM / Relative cell count to DMSO controls, Average 10 μM / Relative cell count to DMSO controls, Average 25 μM / Relative cell count to DMSO controls, Average 50 μM: toxicity data, 100=DMSO control; for Relative cell count to DMSO controls, Average (for correlation analysis): average value over the 5 tested concentrations (1 to 50 uM)"}, "SARS2": {"test_system": "SARS2", "assay_type": "cell-based, SARS-CoV-2", "details": "for Percentage Infection Relative to Appropriate DMSO Control with Avg Background Subtraction: single well; for Percentage Inhibition Average 1 μM / Screening data (Relative infection to DMSO controls) Average 1 μM: SARS2, 1 μM; for Screening data (Relative infection to DMSO controls) Average 1 μM / Screening data (Relative infection to DMSO controls) Average 5 μM / Screening data (Relative infection to DMSO controls) Average 10 μM / Screening data (Relative infection to DMSO controls) Average 25 μM / Screening data (Relative infection to DMSO controls) Average 50 μM / Average (relative infection to DMSO over the 5 tested concentrations): 100=DMSO control; for Percentage Inhibition Average 5 μM / Screening data (Relative infection to DMSO controls) Average 5 μM: SARS2, 5 μM; for Percentage Inhibition Average 10 μM / Screening data (Relative infection to DMSO controls) Average 10 μM: SARS2, 10 μM; for Percentage Inhibition Average 25 μM / Screening data (Relative infection to DMSO controls) Average 25 μM: SARS2, 25 μM; for Percentage Inhibition Average 50 μM / Screening data (Relative infection to DMSO controls) Average 50 μM: SARS2, 50 μM; for Average (relative infection to DMSO over the 5 tested concentrations): SARS2, average over 1 to 50 uM"}}, "note": "Values joined by “and” are separate entries in the source; they are usually repeats but may differ in a detail not shown here. Equal entries are not always repeated. Where two headings read alike, the source gives them in different places.", "data": [{"compound": "OC(COc1c(CNCCc2ccccc2F)cccc1N1CCNCC1)CN1CCCC1", "note": "(stereo not drawn) [SILCS22]", "values": [{"measurement": "Relative cell count to DMSO controls, Average 1 μM", "setting": "cells (nuclei count)", "result": 126.41}, {"measurement": "Relative cell count to DMSO controls, Average 5 μM", "setting": "cells (nuclei count)", "result": 125.64}, {"measurement": "Relative cell count to DMSO controls, Average 10 μM", "setting": "cells (nuclei count)", "result": 137.18}, {"measurement": "Relative cell count to DMSO controls, Average 25 μM", "setting": "cells (nuclei count)", "result": 131.85}, {"measurement": "Relative cell count to DMSO controls, Average 50 μM", "setting": "cells (nuclei count)", "result": 68.81}, {"measurement": "Toxicity Data, Average, Mean", "setting": "cells (nuclei count); Average of Exp 1-3, n 9, 1 uM", "result": 126.41, "unit": "%"}, {"measurement": "Toxicity Data, Average, Mean", "setting": "cells (nuclei count); Average of Exp 1-3, n 9, 5 uM", "result": 125.64, "unit": "%"}, {"measurement": "Toxicity Data, Average, Mean", "setting": "cells (nuclei count); Average of Exp 1-3, n 9, 10 uM", "result": 137.18, "unit": "%"}, {"measurement": "Toxicity Data, Average, Mean", "setting": "cells (nuclei count); Average of Exp 1-3, n 9, 25 uM", "result": 131.85, "unit": "%"}, {"measurement": "Toxicity Data, Average, Mean", "setting": "cells (nuclei count); Average of Exp 1-3, n 9, 50 uM", "result": 68.81, "unit": "%"}, {"measurement": "Relative cell count to DMSO controls, Average (for correlation analysis)", "setting": "cells (nuclei count)", "result": 117.98}, {"measurement": "SARS2 antiviral activity", "setting": "SARS2", "result": "activity approaching that of UMB18"}, {"measurement": "Infection Data, Average, Mean", "setting": "SARS2; Average of Exp 1-3, n 9, 1 uM", "result": 72.38, "unit": "%"}, {"measurement": "Infection Data, Average, Mean", "setting": "SARS2; Average of Exp 1-3, n 9, 5 uM", "result": 70.31, "unit": "%"}, {"measurement": "Infection Data, Average, Mean", "setting": "SARS2; Average of Exp 1-3, n 9, 10 uM", "result": 53.13, "unit": "%"}, {"measurement": "Infection Data, Average, Mean", "setting": "SARS2; Average of Exp 1-3, n 9, 25 uM", "result": 6.37, "unit": "%"}, {"measurement": "Infection Data, Average, Mean", "setting": "SARS2; Average of Exp 1-3, n 9, 50 uM", "result": 2.68, "unit": "%"}, {"measurement": "Percentage Infection Relative to Appropriate DMSO Control with Avg Background Subtraction", "setting": "SARS2; Exp 1 (SMW475), 1 uM", "result": "68.46% and 64.64% and 77.37%"}, {"measurement": "Percentage Infection Relative to Appropriate DMSO Control with Avg Background Subtraction", "setting": "SARS2; Exp 1 (SMW475), 5 uM", "result": "32.75% and 46.98% and 35.47%"}, {"measurement": "Percentage Infection Relative to Appropriate DMSO Control with Avg Background Subtraction", "setting": "SARS2; Exp 1 (SMW475), 10 uM", "result": "15.62% and 28.80% and 29.55%"}, {"measurement": "Percentage Infection Relative to Appropriate DMSO Control with Avg Background Subtraction", "setting": "SARS2; Exp 1 (SMW475), 25 uM", "result": "2.49% and 6.38% and 4.75%"}, {"measurement": "Percentage Infection Relative to Appropriate DMSO Control with Avg Background Subtraction", "setting": "SARS2; Exp 1 (SMW475), 50 uM", "result": "0.02% and 3.92% and 4.65%"}, {"measurement": "Percentage Infection Relative to Appropriate DMSO Control with Avg Background Subtraction", "setting": "SARS2; Exp 2 (SMW477), 1 uM", "result": "76.88% and 75.65% and 76.95%"}, {"measurement": "Percentage Infection Relative to Appropriate DMSO Control with Avg Background Subtraction", "setting": "SARS2; Exp 2 (SMW477), 5 uM", "result": "93.66% and 92.49% and 88.62%"}, {"measurement": "Percentage Infection Relative to Appropriate DMSO Control with Avg Background Subtraction", "setting": "SARS2; Exp 2 (SMW477), 10 uM", "result": "68.54% and 46.53% and 47.36%"}, {"measurement": "Percentage Infection Relative to Appropriate DMSO Control with Avg Background Subtraction", "setting": "SARS2; Exp 2 (SMW477), 25 uM", "result": "5.13% and 4.50% and 4.04%"}, {"measurement": "Percentage Infection Relative to Appropriate DMSO Control with Avg Background Subtraction", "setting": "SARS2; Exp 2 (SMW477), 50 uM", "result": "3.65% and 0.99% and 1.90%"}, {"measurement": "Percentage Infection Relative to Appropriate DMSO Control with Avg Background Subtraction", "setting": "SARS2; Exp 3 (SMW478), 1 uM", "result": "62.06% and 83.81% and 65.64%"}, {"measurement": "Percentage Infection Relative to Appropriate DMSO Control with Avg Background Subtraction", "setting": "SARS2; Exp 3 (SMW478), 5 uM", "result": "69.69% and 88.68% and 84.47%"}, {"measurement": "Percentage Infection Relative to Appropriate DMSO Control with Avg Background Subtraction", "setting": "SARS2; Exp 3 (SMW478), 10 uM", "result": "92.75% and 69.87% and 79.13%"}, {"measurement": "Percentage Infection Relative to Appropriate DMSO Control with Avg Background Subtraction", "setting": "SARS2; Exp 3 (SMW478), 25 uM", "result": "8.14% and 10.91% and 10.99%"}, {"measurement": "Percentage Infection Relative to Appropriate DMSO Control with Avg Background Subtraction", "setting": "SARS2; Exp 3 (SMW478), 50 uM", "result": "1.60% and 3.82% and 3.54%"}, {"measurement": "Percentage Inhibition Average 1 μM", "setting": "SARS2", "result": 27.62, "unit": "%"}, {"measurement": "Screening data (Relative infection to DMSO controls) Average 1 μM", "setting": "SARS2", "result": 72.38}, {"measurement": "Percentage Inhibition Average 5 μM", "setting": "SARS2", "result": 29.69, "unit": "%"}, {"measurement": "Screening data (Relative infection to DMSO controls) Average 5 μM", "setting": "SARS2", "result": 70.31}, {"measurement": "Percentage Inhibition Average 10 μM", "setting": "SARS2", "result": 46.87, "unit": "%"}, {"measurement": "Screening data (Relative infection to DMSO controls) Average 10 μM", "setting": "SARS2", "result": 53.13}, {"measurement": "Percentage Inhibition Average 25 μM", "setting": "SARS2", "result": 93.63, "unit": "%"}, {"measurement": "Screening data (Relative infection to DMSO controls) Average 25 μM", "setting": "SARS2", "result": 6.37}, {"measurement": "Percentage Inhibition Average 50 μM", "setting": "SARS2", "result": 97.32, "unit": "%"}, {"measurement": "Screening data (Relative infection to DMSO controls) Average 50 μM", "setting": "SARS2", "result": 2.68}, {"measurement": "Average (relative infection to DMSO over the 5 tested concentrations)", "setting": "SARS2", "result": 40.97}]}, {"compound": "COc1ccc(-c2[nH]ncc2C(=O)NC2CCCCCC2)cc1OC", "note": "[SILCS60]", "values": [{"measurement": "Relative cell count to DMSO controls, Average 1 μM", "setting": "cells (nuclei count)", "result": 111.59}, {"measurement": "Relative cell count to DMSO controls, Average 5 μM", "setting": "cells (nuclei count)", "result": 110.17}, {"measurement": "Relative cell count to DMSO controls, Average 10 μM", "setting": "cells (nuclei count)", "result": 109.31}, {"measurement": "Relative cell count to DMSO controls, Average 25 μM", "setting": "cells (nuclei count)", "result": 96.61}, {"measurement": "Relative cell count to DMSO controls, Average 50 μM", "setting": "cells (nuclei count)", "result": 85.19}, {"measurement": "Relative cell count to DMSO controls, Average (for correlation analysis)", "setting": "cells (nuclei count)", "result": 102.57}, {"measurement": "Percentage Inhibition Average 1 μM", "setting": "SARS2", "result": 20.62, "unit": "%"}, {"measurement": "Screening data (Relative infection to DMSO controls) Average 1 μM", "setting": "SARS2", "result": 79.38}, {"measurement": "Percentage Inhibition Average 5 μM", "setting": "SARS2", "result": 26.35, "unit": "%"}, {"measurement": "Screening data (Relative infection to DMSO controls) Average 5 μM", "setting": "SARS2", "result": 73.65}, {"measurement": "Percentage Inhibition Average 10 μM", "setting": "SARS2", "result": 26.47, "unit": "%"}, {"measurement": "Screening data (Relative infection to DMSO controls) Average 10 μM", "setting": "SARS2", "result": 73.53}, {"measurement": "Percentage Inhibition Average 25 μM", "setting": "SARS2", "result": 1.46, "unit": "%"}, {"measurement": "Screening data (Relative infection to DMSO controls) Average 25 μM", "setting": "SARS2", "result": 98.54}, {"measurement": "Percentage Inhibition Average 50 μM", "setting": "SARS2", "result": "−22.52", "unit": "%"}, {"measurement": "Screening data (Relative infection to DMSO controls) Average 50 μM", "setting": "SARS2", "result": 122.52}, {"measurement": "Average (relative infection to DMSO over the 5 tested concentrations)", "setting": "SARS2", "result": 89.52}]}]}
